Data reported in US6642031B2, “Microorganisms with ability to degrade indole and enzymes therefrom” (Genencor International, Inc., priority 1995, dated 2003).
“And” between values parts separate entries of the source, which are not always exact repeats. Equal values may be shown once. Read-outs that look alike come from different tables or passages of the source.

Tests used:
[1] = tested on: Pseudomonas putida strain WW2; assay: Growth on carbon sources in MSB liquid culture or agar plates; conditions: for support of growth as carbon source (words): MSB liquid medium or agar plates
Description: Cultivation of the organism. Growth was measured turbidimetrically at 600 nm. […] Additional potential carbon sources were assessed in MSB supplemented with the carbon alternate source (0.2% (w/v) unless specified otherwise) or on plates provided with volatile substrates in the vapor phase. Growth was also conducted in 14 L fermenters in the fed batch mode. […] To study enzyme activity of indole oxidase, the organism was cultured in 50 or 500 ml of media (in 250 ml or 2.8 L nominal volume flasks, respectively) containing minimal salts, succinate and 0.02% indole at 30° C. with rotary shaking (200 rpm).
(§1) Carbon utilization of WW2 was determined by its ability to grow on alternate carbon sources. The bulk of these were determined by Biolog assay. […] In addition, substrate-dependent oxygen consumption of whole resting cells was measured by oxygraph assay as described in Example 11.

Strain WW2 whole cells = assay: Whole cell oxygen uptake with indole and related substrates (Clark electrode oxygraph); type: cell-based, Pseudomonas putida; conditions: for Relative % (oxygen uptake rate) / Oxygen Uptake: substrate 0.6 mM; for Relative % (oxygen uptake rate): indole-dependent rate defined as 100%; for Oxygen Uptake: whole cells 4.5 h after indole induction, corrected for uptake without substrate
Description: as §1
(§2) Indole oxidation activity in whole cells was routinely determined by measuring oxygen uptake rates with a Biological Oxygen Monitor (Yellow Springs Instrument Co., model 5300, Ohio) equipped with a Clark electrode. Reactions were carried out in a stirred, 1.5 ml reaction chamber at 25° C. Washed cells of strain WW2 suspended in 50 mM Tris-HCl (pH 7.5) to an A600 of 2.0 were pre-equilibrated at 25° C. before their addition to the reaction chamber. After recording the endogenous oxygen uptake rate, indole or other substrates (100 mM in dimethylformamide) were added to a final concentration of 0.3 to 1 mM. […] Reported rates were corrected for oxygen uptake observed in the absence of substrate. In the case of indoxyl, the reported rate was also corrected for the spontaneous oxygen consumption rate of indoxyl oxidation in the absence of indole-induced cells.

indole oxidase [2] = assay: Cell-free oxygen uptake in WW2 indole-induced cell extract; type: biochemical, Pseudomonas putida; conditions: for Oxygen Uptake: 1.82 mg/ml cell extract protein, 1 mM NADH, pH 7.5, corrected for uptake without substrate
[3] = tested on: indole oxidation activity in strain WW2 crude cell extract; assay: Cell-free indole-dependent NAD(P)H oxidation, cofactor requirements (spectrophotometric); type: biochemical, Pseudomonas putida
Description: Spectrophotometric assavs. Cell-free, indole-dependent NADH oxidation was measured spectrophotometrically with a Hewlett-Packard 8452A diode array spectrophotometer. The reactions (1.0 ml volume) contained crude soluble cytosolic fraction (SCF), 3.0 mM NADH, 2.0 mM indole and 50 mM Tris-HCl (pH 7.5). The reactions were initiated by addition of NADH and the initial rates were corrected for background NADH oxidation rates, which were measured in the absence of indole. NADPH was substituted for NADH to compare its ability to serve as an electron donor for indole oxidation activity.
Cofactor requirement of the indole oxidizing activity in the crude soluble cytosolic fraction was investigated in spectrophotometric assays as described in Example 6.

indole oxidase [4] = assay: Substrate depletion assay with cell extract, GC/MS and visible spectrum; type: biochemical, Pseudomonas putida
Description: Substrate depletion assays. Substrate depletion assays were carried out in 1.5 ml to 10 ml reactions containing crude SCF, 4.0 mM NADH or NADPH, 2.0 μM FAD, and 1.0 mM indole in 50 mM Tris-HCl (pH 7.5 or 8.0). Substrate and product concentrations were determined by incubating the reactions for the specified period of time with shaking at 250 rpm, extracting 1.0 ml of the aqueous reaction with ethyl acetate and analyzing the extract by gas chromatography-mass spectrometry (GC/MS) described below.
GC/MS was carried out with a Hewlett-Packard model 5890 gas chromatograph equipped with a Hewlett-Packard DB-5 capillary column (inside diameter 0.2 mm by 25 m) and a Hewlett-Packard model 5971 mass selective detector (electron impact ionization 70 eV). The column temperature was programmed from 50 to 325° C. at 10° C./min with a helium flow of 12 cm/s. Temperatures of the injection port and transfer line were 250 and 280° C., respectively.
After indole was completely consumed the reaction mixture was diluted into dimethylformamide (DMF) and the visible spectrum of the resultant blue solution was measured.

Strain WW2 = assay: Induction and sustaining of indole oxidation activity in growing cultures (oxygen uptake with indole); type: cell-based, Pseudomonas putida; conditions: for Oxygen Uptake Rate, Rate 3 h After Re-Addition: re-addition (indole 0.2 g/l and/or succinate 2 g/l) to 4 h indole-induced cells, measured 7 h after initial induction
Source text: Several methods were examined to induce cultures of strain Pseudomonas putida WW2 for indole oxidation during growth. These included growing the strain in MSB containing 0.2% succinate with: (i) a single addition of 0.02% indole and 0.2% succinate during late log phase; (ii) indole provided in the vapor phase, during growth, from a small cloth bag containing indole crystals suspended above the surface of the medium; or (iii) both indole vapor during growth and direct addition of 0.02% indole and 0.2% succinate during late log phase.
as §2

[5] = substrate 0.3 mM, indole = 100%

Row | SMILES | Relative % (oxygen uptake rate) (Strain WW2 whole cells) [%] | Oxygen Uptake (Strain WW2 whole cells) [O2 %/min/ODU] | Oxygen Uptake (indole oxidase [2]; substrate 0.3 mM) [O2 %/min/ODU] | Relative % (oxygen uptake rate) (indole oxidase [2]; [5]) [%] | further results
1 | c1ccc2ccccc2c1 [Naphthalene] | 9 | 1.1 | – | – | support of growth as carbon source (words) [1]: did not support growth; support of growth as carbon source (words) ([1]; listed as naphthalene): not to support growth; Relative % (oxygen uptake rate) (Strain WW2 whole cells; listed as naphthalene): 9%; activity of the enzyme with the substrate (indole oxidase [2]): very low activity
2 | Cc1cc2nc3c(=O)[nH]c(=O)nc-3n(C[C@H](O)[C@H](O)[C@H](O)COP(=O)(O)OP(=O)(O)OC[C@H]3O[C@@H](n4cnc5c(N)ncnc54)[C@H](O)[C@@H]3O)c2cc1C [FAD, flavin adenine dinucleotide] | – | – | – | – | stimulation of activity by cofactor added to the assay [3]: 3 fold
3 | C1=Cc2ccccc2C1 [indene] | – | – | – | – | 2-indanone, single detectable product, share of total ion current (indole oxidase [4]; crude SCF with NADPH, GC/MS): approximately 20%
4 | Clc1ccc2[nH]ccc2c1 [5-Cl-Indole] | – | – | 4 | 28 | –
5 | Oc1cccc2[nH]ccc12 [4-OH-Indole] | – | – | 2.5 | – | Relative % (oxygen uptake rate) (indole oxidase [2]): 17%
6 | Cc1cccc2[nH]ccc12 [4-Me-Indole] | – | – | 1 | 7 | –
7 | Cc1cccc2cc[nH]c12 [7-Me-Indole] | 39 | 4.6 | 12.5 | 86 | –
8 | c1ccc2[nH]ccc2c1 [Indole] | 100 | 11.8 | 14.5 | 100 | support of growth as carbon source (words) [1]: good carbon source; concentration above which toxic ([1]; liquid culture): exceeded 400 mg/L; conversion of indole to indigo (indole oxidase [4]; 4.0 mM NADPH as electron donor, from absorption at 610 nm in DMF): 20%; Oxygen Uptake Rate, Rate After 4 h Induction with Indole (Strain WW2; induced with indole 0.2 g/l at 16 h growth, before re-addition): 14.4 O2 %/min/ODU and 13.3 O2 %/min/ODU and 14.1 O2 %/min/ODU and 12.1 O2 %/min/ODU; Oxygen Uptake Rate, Rate 3 h After Re-Addition (Strain WW2): 13.8 O2 %/min/ODU
9 | O=C(O)CCC(=O)O [Succinate] | – | – | – | – | Oxygen Uptake Rate, Rate 3 h After Re-Addition (Strain WW2): 1.8 O2 %/min/ODU
10 | O=S(=O)([O-])[O-].O=S(=O)([O-])[O-].[Fe+2].[NH4+].[NH4+] [Fe^++, Fe(NH4)2SO4] | – | – | – | – | effect of added cofactor on activity [3]: stimulatory effect
11 | Nc1ccccc1C(=O)O [Anthranilate, Anthranilic acid] | <1 | 0.6 | – | – | stimulation of oxygen uptake rate (Strain WW2 whole cells; whole resting cells): no significant stimulation
12 | COc1ccc2[nH]ccc2c1 [5-MeO-Indole] | – | – | 1 | – | Relative % (oxygen uptake rate) (indole oxidase [2]): 7%
13 | Oc1c[nH]c2ccccc12 [Indoxyl, 3-hydroxyindole] | 177 | 20.9 | – | – | increase in oxygen uptake rate (Strain WW2 whole cells; relative to indole): 1.7 fold
14 | Cc1c[nH]c2ccccc12 [3-Me-Indole] | – | – | 2 | 14 | –
15 | O=C1Nc2ccccc2C1=O [Isatin, 2,3-dioxoindole] | – | – | 0 | 0 | –
16 | Clc1ccc2cc[nH]c2c1 [6-Cl-Indole] | – | – | 7 | 48 | –
17 | Clc1cccc2[nH]ccc12 [4-Cl-Indole] | – | – | 0 | 0 | –
18 | Oc1ccc2[nH]ccc2c1 [5-OH-Indole] | – | – | 3.5 | 24 | –
19 | NC(=O)C1=CN([C@@H]2O[C@H](COP(=O)(O)OP(=O)(O)OC[C@H]3O[C@@H](n4cnc5c(N)ncnc54)[C@H](OP(=O)(O)O)[C@@H]3O)[C@@H](O)[C@H]2O)C=CC1 [NADPH, nicotinamide adenine phosphate dinucleotide] | – | – | – | – | rate of indole removal relative to that observed with NADH (indole oxidase [4]; 4.0 mM NADPH instead of NADH, cell extract 0.57 mg/ml, pH 8): approximately 60%
20 | c1ccc2sccc2c1 [Thianaphthene] | 26 | 3.1 | 1 | 7 | –
21 | Brc1ccc2[nH]ccc2c1 [5-Br-Indole] | – | – | 0 | 0 | –
22 | O=[N+]([O-])c1ccc2[nH]ccc2c1 [5-NO2-Indole] | – | – | 0 | 0 | –
23 | c1ccc2occc2c1 [2,3-Benzofuran] | 30 | 3.5 | 0 | 0 | –
24 | Cc1cc2nc3c(=O)[nH]c(=O)nc-3n(C[C@H](O)[C@H](O)[C@H](O)COP(=O)(O)O)c2cc1C [FMN] | – | – | – | – | effect of added cofactor on activity [3]: no effect
25 | Fc1ccc2[nH]ccc2c1 [5-F-Indole, 5-fluoroindole] | 50 | 5.9 | 13.5 | 93 | –
